Laboratory results from paper PMC4823711, “Allosteric Partial Inhibition of Monomeric Proteases. Sulfated Coumarins Induce Regulation, not just Inhibition, of Thrombin” (Scientific Reports, 2016).

Legend:
thrombin mutant K236A = biological target: T1, thrombin mutant K236A (Homo sapiens, UniProt P00734, K611A); assay: Inhibition of thrombin mutant K236A; type: biochemical; settings: pH 7.4, 25 °C
T1 construct: a group of thrombin mutants containing replacement of either Arg or Lys present in exosite 2 to Ala
Protocol: Chromogenic substrate hydrolysis assay was used to measure potency of inhibition, as previously reported. The assay was performed using Flexstation III (Molecular Devices, Sunnyvale, CA) by monitoring substrate hydrolysis at 405 nm. For thrombin and its mutants, 180 μL of buffer (20 mM Tris-HCl, 100 mM NaCl, 2.5 mM CaCl2, 0.1% (polyethylene glycol) PEG 8000, pH 7.4) was added to each well followed by 5 μL of 240 nM thrombin and 10 μL of sulfated coumarin in DMSO to give 0.002 to 250 μM final concentration (or 10 μL of DMSO alone). After incubation for 10 min at 25 °C, 5 μL of 2 mM Spectrozyme TH was added to each well simultaneously and allowed to react for 60 seconds at 25 °C while simultaneously monitoring the reaction to obtain the rate of increase in A405. Identical experimental conditions were used for reactions in the presence of antithrombin, except for 100 nM of antithrombin added prior to the addition of the substrate.

factor Xa = biological target: T2, factor Xa (Homo sapiens, UniProt P00742); assay: Chromogenic substrate hydrolysis assay, factor Xa inhibition (Spectrozyme FXa); type: biochemical
T2 construct: antithrombin, factor Xa and factor XIa were from Haematologic Technologies; purchased Haematologic Technologies (Essex Junction, VT); host or cells: human plasma
Protocol: For factor XIa inhibition studies, 85 μL of buffer (50 mM Tris-HCl, 150 mM NaCl, 0.1% PEG 8000, 0.02% Tween 80, pH 7.4) was added to each well, followed by 7 μL of 15.3 nM enzyme and 3 μL of sulfated coumarin (3.75–500 μM final concentration) and incubated for 10 min at 37 °C. After the incubation period, 5 μL of 6.9 mM S-2366 was added to each well simultaneously and allowed to react for 300 sec at 37 °C. For factor Xa assay, 180 μL of buffer (20 mM Tris-HCl, 100 mM NaCl, 2.5 mM CaCl2, 0.1% PEG 8000, 0.02% Tween 80, pH 7.4) was added to each well followed by 5 μL of 43.5 nM enzyme, 10 μL of sulfated coumarin (0.002–250 μM final concentration). After a 10 min incubation, 5 μL of 5 mM Spectrozyme FXa was added to each well simultaneously and allowed to react for 300 seconds at 37 °C. The slopes generated from each experiment were used to calculate the fractional residual activity (Y) at each concentration of the inhibitor, and analyzed using logistic equation 1, in which YM is the maximum efficacy, Y0 is minimum efficacy and HS is the Hill slope.

T2 sequence (P00742 235-488 limits assumed): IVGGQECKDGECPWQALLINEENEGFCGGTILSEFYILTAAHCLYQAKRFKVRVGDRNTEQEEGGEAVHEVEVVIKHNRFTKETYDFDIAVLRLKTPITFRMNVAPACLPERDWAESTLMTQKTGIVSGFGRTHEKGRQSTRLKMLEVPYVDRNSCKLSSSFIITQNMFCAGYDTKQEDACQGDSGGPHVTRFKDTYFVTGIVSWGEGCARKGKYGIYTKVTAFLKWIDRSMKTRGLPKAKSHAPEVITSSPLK
T2 sequence (P00742 41-179 limits assumed): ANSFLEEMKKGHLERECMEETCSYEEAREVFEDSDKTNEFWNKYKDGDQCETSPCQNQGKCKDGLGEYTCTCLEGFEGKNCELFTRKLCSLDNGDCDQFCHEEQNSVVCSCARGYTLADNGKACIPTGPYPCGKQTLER

HS (thrombin mutant K236A): 2.6 | IC50 (thrombin mutant K236A): 525 ± 70 nM | ΔY (thrombin mutant K236A): 64 ± 4% | selectivity for thrombin in comparison to factor Xa (factor Xa): ~ 800 fold | IC50 (factor Xa; pH 7.4, 37 °C, read-out: IC50 against factor Xa): > 30000 nM
Compound: O=c1oc2cc(OCCCCn3cc(COc4ccc(-c5c(-c6ccccc6)c6cc(Cl)cc(Cl)c6oc5=O)cc4)nn3)ccc2c(-c2ccccc2)c1-c1ccc(OS(=O)(=O)O)cc1 [3g]
